Assay results from the supplement of paper PMC4862054.

Assays:
Settings in all cases: incubation time: 72 h
BT-474 = experiment: normalised response (% of control), CellTiter-Glo; higher = more viable cells (100 = DMSO, 0 = benzethonium chloride kill control)
In short: (§1)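 Normalised signals at single concentrations make up the values. They come from breast cancer cell lines seeded (20 µl suspension) into 384-well plates with compound at 5 concentrations in 10-fold steps over a compound-specific 10,000-fold range, incubated 72 h, and read for CellTox Green fluorescence then CellTiter-Glo luminescence. Each plate was normalised to 0.1 % DMSO (100) and a positive kill control (0).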

BT-549 [1] = experiment: as above
In short: as §1

CAL-148 [2] = experiment: as above
In short: as §1

CAL-51 = experiment: as above
In short: as §1

DU-4475 [3] = experiment: as above
In short: as §1

HCC1143 = experiment: as above
In short: as §1

HCC1937 = experiment: as above
In short: as §1

HDQ-P1 = experiment: as above
In short: as §1

Hs578T [4] = experiment: as above
In short: as §1

MCF-10A = experiment: as above
In short: as §1

MDA-MB-436 [5] = experiment: as above
In short: as §1

MDA-MB-453 [6] = experiment: as above
In short: as §1

MDA-MB-468 = experiment: as above
In short: as §1

MFM-223 = experiment: as above
In short: as §1

SK-BR-3 = experiment: as above
In short: as §1

BT-549 [7] = experiment: normalised viability (% of control), CellTiter-Blue; higher = more viable cells (about 100 = DMSO control)
In short: (§2)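 Seeded at 20 µl suspension per well onto compound-loaded 384-well plates, breast cancer cell lines were incubated 72 h. CellTiter-Blue fluorescence at 560/590 nm was then read, with each plate normalised to vehicle (100) and a positive kill control (0). Normalised viability is reported at a single listed concentration of the series.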

CAL-148 [8] = experiment: as above
In short: as §2

CAL-85-1 = experiment: as above
In short: as §2

DU-4475 [9] = experiment: as above
In short: as §2

HCC1599 = experiment: as above
In short: as §2

Hs578T [10] = experiment: as above
In short: as §2

MDA-MB-436 [11] = experiment: as above
In short: as §2

MDA-MB-453 [12] = experiment: as above
In short: as §2

Row | Compound | normalised response (BT-474) | normalised response (BT-549 [1]) | normalised response (CAL-148 [2]) | normalised response (CAL-51) | normalised response (DU-4475 [3]) | normalised response (HCC1143) | normalised response (HCC1937) | normalised response (HDQ-P1) | normalised response (Hs578T [4]) | normalised response (MCF-10A) | normalised response (MDA-MB-436 [5]) | normalised response (MDA-MB-453 [6]) | normalised response (MDA-MB-468) | normalised response (MFM-223) | normalised response (SK-BR-3) | normalised viability (BT-549 [7]; 1000 nM) | normalised viability (CAL-148 [8]; 3 nM) | normalised viability (CAL-85-1; 3 nM) | normalised viability (DU-4475 [9]; 3 nM) | normalised viability (HCC1599; 1000 nM) | other results
1 | CO[C@H]1/C=C\C=C(/C)C(=O)NC2=CC(=O)C(NCCN(C)C)=C(C[C@@H](C)C[C@H](OC)[C@H](O)[C@@H](C)/C=C(\C)[C@@H]1OC(N)=O)C2=O [Alvespimycin] (100 nM) | 36.1% | 33.7% | 23.9% | 26.7% | 0.07% | 35.4% | 36.5% | 31.3% | 41.8% | 13.5% | 46.6% | 25.8% | 39.6% | 39.9% | 44.1% |  |  |  |  |  | 
2 | CCC1(c2ccc(N)cc2)CCC(=O)NC1=O (stereo not given) [Aminoglutethimide] |  |  |  |  |  |  |  |  |  |  |  |  |  |  |  | 101% | 108% | 104% | 107% | 92.7% | normalised viability (BT-549 [7]; 10 nM): 84.2%; normalised viability (BT-549 [7]; 10000 nM): 76.4%; normalised viability (CAL-148 [8]; 30 nM): 105%; normalised viability (CAL-148 [8]; 100 nM): 106%; normalised viability (CAL-85-1; 30 nM): 89.6%; normalised viability (CAL-85-1; 100 nM): 103%; normalised viability (DU-4475 [9]; 30 nM): 86.9%; normalised viability (DU-4475 [9]; 100 nM): 85.2%; normalised viability (HCC1599; 10 nM): 90.8%; normalised viability (HCC1599; 10000 nM): 95.3%; normalised viability (Hs578T [10]; 10 nM): 95.8%; normalised viability (Hs578T [10]; 1000 nM): 113%; normalised viability (Hs578T [10]; 10000 nM): 89.8%; normalised viability (MDA-MB-436 [11]; 10 nM): 95.9%; normalised viability (MDA-MB-436 [11]; 1000 nM): 112%; normalised viability (MDA-MB-436 [11]; 10000 nM): 91.6%; normalised viability (MDA-MB-453 [12]; 3 nM): 94.9%; normalised viability (MDA-MB-453 [12]; 30 nM): 93%; normalised viability (MDA-MB-453 [12]; 100 nM): 89.2%
3 | CCC1(c2ccc(N)cc2)CCC(=O)NC1=O (stereo not given) [Aminoglutethimide] (1000 nM) | 100% | 94.7% | 96.2% | 80.4% | 101% | 97.6% | 96.8% | 97% | 101% | 101% | 102% | 100% | 105% | 101% | 95.6% |  |  |  |  |  | 
4 | NCC(=O)CCC(=O)O [Aminolevulinic acid] |  |  |  |  |  |  |  |  |  |  |  |  |  |  |  | 84.1% | 93.8% | 99.9% | 104% | 86.5% | normalised viability (BT-549 [7]; 10 nM): 85.6%; normalised viability (BT-549 [7]; 10000 nM): 90%; normalised viability (CAL-148 [8]; 30 nM): 101%; normalised viability (CAL-148 [8]; 100 nM): 98.8%; normalised viability (CAL-85-1; 30 nM): 87.1%; normalised viability (CAL-85-1; 100 nM): 98.8%; normalised viability (DU-4475 [9]; 30 nM): 77.5%; normalised viability (DU-4475 [9]; 100 nM): 110%; normalised viability (HCC1599; 10 nM): 84.3%; normalised viability (HCC1599; 10000 nM): 90.8%; normalised viability (Hs578T [10]; 10 nM): 108%; normalised viability (Hs578T [10]; 1000 nM): 104%; normalised viability (Hs578T [10]; 10000 nM): 96.3%; normalised viability (MDA-MB-436 [11]; 10 nM): 99.1%; normalised viability (MDA-MB-436 [11]; 1000 nM): 102%; normalised viability (MDA-MB-436 [11]; 10000 nM): 96.5%; normalised viability (MDA-MB-453 [12]; 3 nM): 110%; normalised viability (MDA-MB-453 [12]; 30 nM): 93.5%; normalised viability (MDA-MB-453 [12]; 100 nM): 90.2%
5 | Cn1c(CCCC(=O)O)nc2cc(N(CCCl)CCCl)ccc21 [Bendamustine] |  |  |  |  |  |  |  |  |  |  |  |  |  |  |  | 101% | 99.8% | 91.2% | 90% | 105% | normalised viability (BT-549 [7]; 10 nM): 107%; normalised viability (BT-549 [7]; 10000 nM): 101%; normalised viability (CAL-148 [8]; 30 nM): 112%; normalised viability (CAL-148 [8]; 100 nM): 106%; normalised viability (CAL-85-1; 30 nM): 94.8%; normalised viability (CAL-85-1; 100 nM): 100%; normalised viability (DU-4475 [9]; 30 nM): 102%; normalised viability (DU-4475 [9]; 100 nM): 101%; normalised viability (HCC1599; 10 nM): 115%; normalised viability (HCC1599; 10000 nM): 114%; normalised viability (Hs578T [10]; 10 nM): 110%; normalised viability (Hs578T [10]; 1000 nM): 127%; normalised viability (Hs578T [10]; 10000 nM): 97.7%; normalised viability (MDA-MB-436 [11]; 10 nM): 94.7%; normalised viability (MDA-MB-436 [11]; 1000 nM): 70.4%; normalised viability (MDA-MB-436 [11]; 10000 nM): 116%; normalised viability (MDA-MB-453 [12]; 3 nM): 125%; normalised viability (MDA-MB-453 [12]; 30 nM): 108%; normalised viability (MDA-MB-453 [12]; 100 nM): 106%
6 | Cn1c(CCCC(=O)O)nc2cc(N(CCCl)CCCl)ccc21 [Bendamustine] (1000 nM) | 101% | 92.4% | 110% | 112% | 101% | 106% | 95.7% | 102% | 106% | 96.9% | 101% | 117% | 117% | 111% | 107% |  |  |  |  |  | 
7 | C=C(c1ccc(C(=O)O)cc1)c1cc2c(cc1C)C(C)(C)CCC2(C)C [Bexarotene] (1000 nM) | 87.8% | 102% | 86.4% | 111% | 103% | 102% | 102% | 104% | 94.9% | 81.8% | 99.4% | 103% | 103% | 102% | 80% |  |  |  |  |  | 
8 | CC(=O)Nc1ccc(C(=O)Nc2ccccc2N)cc1 [CI-994] |  |  |  |  |  |  |  |  |  |  |  |  |  |  |  | 112% | 93.9% | 104% | 81% | 84.8% | normalised viability (BT-549 [7]; 1 nM): 116%; normalised viability (BT-549 [7]; 100 nM): 97%; normalised viability (CAL-148 [8]; 0.3 nM): 104%; normalised viability (CAL-148 [8]; 10 nM): 101%; normalised viability (CAL-85-1; 0.3 nM): 104%; normalised viability (CAL-85-1; 10 nM): 101%; normalised viability (DU-4475 [9]; 0.3 nM): 86%; normalised viability (DU-4475 [9]; 10 nM): 107%; normalised viability (HCC1599; 1 nM): 104%; normalised viability (HCC1599; 100 nM): 99.8%; normalised viability (Hs578T [10]; 1 nM): 119%; normalised viability (Hs578T [10]; 100 nM): 115%; normalised viability (Hs578T [10]; 1000 nM): 92.5%; normalised viability (MDA-MB-436 [11]; 1 nM): 98.7%; normalised viability (MDA-MB-436 [11]; 100 nM): 97.2%; normalised viability (MDA-MB-436 [11]; 1000 nM): 94.8%; normalised viability (MDA-MB-453 [12]; 0.3 nM): 100%; normalised viability (MDA-MB-453 [12]; 3 nM): 100%; normalised viability (MDA-MB-453 [12]; 10 nM): 105%
9 | COc1cc2nccc(Oc3ccc(NC(=O)C4(C(=O)Nc5ccc(F)cc5)CC4)cc3)c2cc1OC [Cabozantinib] (100 nM) | 87.7% | 96.5% | 98.1% | 109% | 99.6% | 92.2% | 95.6% | 97.6% | 103% | 88.6% | 99.2% | 106% | 96.7% | 98.7% | 104% |  |  |  |  |  | 
10 | N.N.[Cl][Pt][Cl] [Cisplatin] |  |  |  |  |  |  |  |  |  |  |  |  |  |  |  | 87.6% | 92.1% | 96.2% | 105% | 93.4% | normalised viability (BT-549 [7]; 10 nM): 87.5%; normalised viability (BT-549 [7]; 10000 nM): 88.8%; normalised viability (CAL-148 [8]; 30 nM): 102%; normalised viability (CAL-148 [8]; 100 nM): 103%; normalised viability (CAL-85-1; 30 nM): 87.7%; normalised viability (CAL-85-1; 100 nM): 95.7%; normalised viability (DU-4475 [9]; 30 nM): 116%; normalised viability (DU-4475 [9]; 100 nM): 88.8%; normalised viability (HCC1599; 10 nM): 100%; normalised viability (HCC1599; 10000 nM): 86.7%; normalised viability (Hs578T [10]; 10 nM): 100%; normalised viability (Hs578T [10]; 1000 nM): 139%; normalised viability (Hs578T [10]; 10000 nM): 122%; normalised viability (MDA-MB-436 [11]; 10 nM): 102%; normalised viability (MDA-MB-436 [11]; 1000 nM): 87.1%; normalised viability (MDA-MB-436 [11]; 10000 nM): 94.8%; normalised viability (MDA-MB-453 [12]; 3 nM): 124%; normalised viability (MDA-MB-453 [12]; 30 nM): 117%; normalised viability (MDA-MB-453 [12]; 100 nM): 110%
